Reference: ChEMBL document CHEMBL5724914, “Linking interpersonal differences in gut microbiota composition and drug biotransformation activity” (2024)

Key:
[1] = human gut metagenome, 24 h, 2 µM
[2] = human gut metagenome, 24 h, 2 µM; remark: listed apart in the source
[3] = (§1) The drug is tested on Z-020 corresponding to rabbit gut metagenome with ENA study accession number: PRJEB37062 and ENA sample accession number: ERS12561819 for biotransformation under anaerobic condition. The drug concentrations were measured over 9 timepoints collected between 0 and 24 hours of incubation by liquid-chromatography-coupled mass spectrometry (LC–MS); settings: 2 µM
[4] = as §1, with “Z-026” for “Z-020”, “to” for “to rabbit gut”, “ERS12561825” for “ERS12561819”; settings: 2 µM
[5] = as §1, with “Z-027” for “Z-020”, “to” for “to rabbit gut”, “ERS12561826” for “ERS12561819”; settings: 2 µM
[6] = as §1, with “Z-009” for “Z-020”, “pig” for “rabbit”, “ERS12561809” for “ERS12561819”; settings: 2 µM
[7] = human gut metagenome, 24 h, 2 µM; remark: listed apart in the source
[8] = human gut metagenome, 24 h, 2 µM; remark: listed apart in the source
[9] = human gut metagenome, 24 h, 2 µM; remark: listed apart in the source
Note: call rule not given here.

SMILES	Bacterial Biotransformation [1]	Bacterial Biotransformation [2]	Bacterial Biotransformation [3]	Bacterial Biotransformation [4]	Bacterial Biotransformation [5]	Bacterial Biotransformation [6]	Bacterial Biotransformation [7]	Bacterial Biotransformation [8]	Bacterial Biotransformation [9]
c1ccc2[nH]c(-c3cscn3)nc2c1 [THIABENDAZOLE]	Compound NOT metabolized	Compound metabolized	Compound NOT metabolized	Compound NOT metabolized	Compound NOT metabolized	Compound NOT metabolized	Compound NOT metabolized	Compound metabolized	Compound NOT metabolized
CCN(CC)CCNC(=O)c1cc(S(C)(=O)=O)ccc1OC [TIAPRIDE]	Compound metabolized	Compound metabolized	Compound NOT metabolized	Compound NOT metabolized	Compound NOT metabolized	Compound NOT metabolized	Compound NOT metabolized	Compound metabolized	Compound NOT metabolized
CC(C)(C)NC[C@H](O)COc1nsnc1N1CCOCC1.O=C(O)/C=C\C(=O)O [TIMOLOL MALEATE]	Compound NOT metabolized	Compound NOT metabolized	Compound NOT metabolized	Compound NOT metabolized	Compound NOT metabolized	Compound NOT metabolized	Compound NOT metabolized	Compound NOT metabolized	Compound NOT metabolized
CC[C@@]1(O)C(=O)OCc2c1cc1n(c2=O)Cc2cc3c(CN(C)C)c(O)ccc3nc2-1 [TOPOTECAN]	Compound NOT metabolized	Compound NOT metabolized	Compound NOT metabolized	Compound NOT metabolized	Compound NOT metabolized	Compound NOT metabolized	Compound NOT metabolized	Compound NOT metabolized	Compound NOT metabolized
COc1ccc(C(CN(C)C)C2(O)CCCCC2)cc1 (configuration not stated) [VENLAFAXINE]	Compound NOT metabolized	Compound metabolized	Compound NOT metabolized	Compound NOT metabolized	Compound NOT metabolized	Compound NOT metabolized	Compound NOT metabolized	Compound NOT metabolized	Compound NOT metabolized
CCOC(=O)C1=C[C@]2(CC)CCCN3CCc4c(n1c1ccccc41)[C@@H]32 [VINPOCETINE]	Compound metabolized	Compound metabolized	Compound metabolized	Compound NOT metabolized	Compound NOT metabolized	Compound metabolized	Compound metabolized	Compound NOT metabolized	Compound metabolized
C[C@@H](c1ncncc1F)[C@](O)(Cn1cncn1)c1ccc(F)cc1F [VORICONAZOLE]	Compound metabolized	Compound metabolized	Compound metabolized	Compound NOT metabolized	Compound NOT metabolized	Compound metabolized	Compound metabolized	Compound metabolized	Compound metabolized
CCN(C(C)=O)c1cccc(-c2ccnc3c(C#N)cnn23)c1 [ZALEPLON]	Compound metabolized	Compound metabolized	Compound metabolized	Compound NOT metabolized	Compound NOT metabolized	Compound metabolized	Compound metabolized	Compound metabolized	Compound metabolized
